# Assay: Randomized control study of daily topical application in women with low vitamin D
# Format: in vivo, human
# Settings: 3 months
# Experimental: A study was carried out on 50 women with low vitamin D. The women were healthy and unmarried. Age, weight, height, and detailed medical history were recorded. Meticulous clinical examination was performed to rule out any diseases. A complete blood picture, including serum calcium, phosphorous, alkaline phosphatase, Parathormone and 25 Hydroxy-vitamin D (25OHD), was obtained. Two women had >30 ng/mL of 25OHD and were excluded from the study. The 25-Hydroxy Vitamin D3 level was measured in house by chemiluminescence immunoassay (CLIA), and 30 ng/mL was taken as normal, 21-29 ng/mL as insufficiency and 20 ng/mL as deficiency.
# The participants were divided into two groups of 24 women each. All participants unequivocally agreed not to change their dietary habits and life style until the study was over. The group of women participating in the study were asked to apply the topical composition with Vitamin D3. Each gram of the composition delivered 5000 IU of vitamin D3. The second group used 1 gram of aloe vera gel. The participants had no knowledge to which group they belong. A second blood sample was taken at the end of 3 months, and the data was entered in the database and analyzed using a t-test to compare means between the two groups for all the parameters tested before and after topical use of VD and AVG. […]
compound,measurement,value
"C=C1CC[C@H](O)C/C1=C/C=C1\CCC[C@]2(C)[C@@H]([C@H](C)CCCC(C)C)CC[C@@H]12 [Vitamin D3, cholecalciferol]",safety of delivery through the dermal route,can safely be delivered through the dermal route

# From US9707243B2, “Topical composition with vitamin D3” (priority 2014, dated 2017)
